Where two headings read alike, the source gives them in different places.
Columns and labels:
[1] = target: recombinant SARS-CoV-2 S1-S2 protein (Severe acute respiratory syndrome coronavirus 2, UniProt P0DTC2); format: binding
[2] = tested on: wild-type SARS-CoV-2 (2019-nCoV/USA-WA1/2020 strain); format: cell-based
[3] = tested on: SARS2-Spp binding to Huh7 cells; format: cell-based, SARS-CoV-2
[4] = tested on: SARS-CoV-2 S protein-mediated cell-cell fusion; format: cell-based; conditions: 30, 10, 3, 1 μM; 48 h
in vitro [5] = conditions: African green monkey
[6] = tested on: SARS-CoV-2 S protein-mediated cell-cell fusion; format: cell-based; conditions: 30 μM; 48 h
VSV-Gpp = format: cell-based, vesicular stomatitis virus
in vitro [7] = conditions: human
in vitro [8] = conditions: human; remark: listed apart in the source
SARS-CoV-2-NLuc = test: microbe, parasite or virus in culture; format: cell-based; conditions: Severe acute respiratory syndrome coronavirus 2, Vero C1008
SARS2-Spp = format: cell-based, SARS-CoV-2
icSARS-CoV-2-mNeonGreen = format: cell-based, SARS-CoV-2

| Molecule | suppression of viral RNA levels [2] | effect on viral binding to cells [3] | inhibition of donor-recipient fusion events (SmBit-LgBit) [4] | CC50 (in vitro [5]) [µM] | inhibition of fusion (GFP-RFP colocalization) [6] | inhibition of VSV-Gpp entry (VSV-Gpp) | CC50 (in vitro [7]) [µM] | CC50 (in vitro [8]) [µM] | inhibition when present at early entry time points (SARS2-Spp) | inhibition when present during binding (SARS2-Spp) | other results |
| --- | --- | --- | --- | --- | --- | --- | --- | --- | --- | --- | --- |
| O=C(CCCCC1SCC2NC(=O)NC21)NCCOCCOCCN1CCN(C(c2ccc(Cl)cc2)c2ccc(C3(C(F)(F)F)N=N3)cc2)CC1 (centres unmarked) [CCZ-DB] | – | – | – | – | – | – | – | – | – | – | binding to recombinant S1-S2 protein by cross-linking ([1]; 10 µM probe, UV irradiation, Neutravidin pull-down, anti-S2 blot): direct binding |
| CCC(CC)COC(=O)[C@H](C)N[P@](=O)(OC[C@H]1O[C@@](C#N)(c2ccc3c(N)ncnn23)[C@H](O)[C@@H]1O)Oc1ccccc1 [remdesivir] | up to 3 log | – | – | – | – | – | – | – | – | – | – |
| Heparan sulfate | – | significantly inhibited | – | – | – | – | – | – | – | – | – |
| CN1CCN([C@@H](c2ccccc2)c2ccc(Cl)cc2)CC1 [(S)-CCZ, (S)-chlorcyclizine] | – | – | inhibited | 36.2 | showed inhibition | no inhibition | > 30 | > 100 | – | – | CC50 (Huh7 cells; human): 41.7 µM |
| CCN(CC)CCCC(C)Nc1ccnc2cc(Cl)ccc12 (centres unmarked) [Chloroquine, chloroquine] | – | – | – | > 100 | – | strong inhibition | > 30 | > 100 | – | – | CC50 (Huh7 cells; human): 37.5 µM |
| Cc1cc(-c2nc(CN3CCC(C(=O)NCCCN4C[C@H](C)C[C@H](C)C4)CC3)co2)ccc1F [Fluoxazolevir, fluoxazolevir] | up to 2 log | little or no effect | inhibited | > 100 | showed inhibition | minimal | 32.7 | > 100 | potent inhibition | minimal inhibition | EC50 (SARS-CoV-2-NLuc): 1.96 µM; EC50 (icSARS-CoV-2-mNeonGreen): single-digit micromolar range |
| CCN1CCN(C(c2ccc(Cl)cc2)c2ccc(Cl)cc2)CC1 [Dichlorcyclizine, dichlorcyclizine] | up to 2 log | little or no effect | potent inhibition | > 100 | strong inhibition | no inhibition | – | > 100 | potent inhibition | minimal inhibition | EC50 (SARS-CoV-2-NLuc): 4.99 µM; competition of probe cross-linking to the spike protein ([1]; 30-fold excess over CCZ-DB): could outcompete; EC50 (icSARS-CoV-2-mNeonGreen): single-digit micromolar range |
| CN(C)C(=O)COC(=O)Cc1ccc(OC(=O)c2ccc(NC(=N)N)cc2)cc1 [Camostat, camostat] | – | – | did not suppress | > 100 | did not decrease | – | > 100 | > 100 | – | – | – |
| CCOC(=O)[C@H]1O[C@@H]1C(=O)N[C@@H](CC(C)C)C(=O)NCCC(C)C [E-64d] | – | little or no effect | did not suppress | – | did not decrease | – | – | – | displayed inhibition | displayed inhibition | CC50 (Huh7 cells): > 100 µM; CC50 (MA104 cells): > 100 µM; CC50 (293ACE2 cells): > 100 µM; inhibition when present at middle entry time point (SARS2-Spp): displayed inhibition |

Reference: article PMC8749431 (mBio, 2022)
